The source made the active and inactive calls. The calls are words filed in the database; no cut-off is given here.
Assays:
[1] = Cytotoxicity against human HAC cells assessed as reduction in cell viability after 4 days by MTS assay; format: cell-based; settings: 96 h
[2] = Cytotoxicity against human GSC12 cells assessed as reduction in cell viability after 4 days by MTS assay; format: functional, cell-based; settings: GSC12, 96 h
[3] = Cytotoxicity against human GSC18 cells assessed as reduction in cell viability after 4 days by MTS assay; format: functional, cell-based; settings: GSC18, 96 h
HEK-293T [4] = experiment: Cytotoxicity against human 293T cells assessed as reduction in cell viability after 4 days by MTS assay; format: cell-based; settings: 96 h
Homo sapiens [5] = organism: Homo sapiens; experiment: Cytotoxicity against human GSC18 cells assessed as cell growth inhibition at 25 uM by phenotypic screening-based assay; format: functional
Homo sapiens [6] = organism: Homo sapiens; experiment: Induction of apoptosis in human GSC18 cells assessed as increase in caspase12 mRNA levels at 25 uM after 10 days by RT-PCR analysis relative to DMSO; format: functional, cell-based
Homo sapiens [7] = organism: Homo sapiens; experiment: Induction of extrinsic apoptosis in human GSC18 cells assessed as increase in IL1 mRNA levels at 25 uM after 10 days by RT-PCR analysis relative to DMSO; format: functional, cell-based
Homo sapiens [8] = organism: Homo sapiens; experiment: Induction of intrinsic apoptosis in human GSC18 cells assessed as increase in bcl-2 mRNA levels at 25 uM after 10 days by RT-PCR analysis relative to DMSO; format: functional, cell-based
Homo sapiens [9] = organism: Homo sapiens; experiment: Induction of intrinsic apoptosis in human GSC18 cells assessed as increase in apaf1 mRNA levels at 25 uM after 10 days by RT-PCR analysis relative to DMSO; format: functional, cell-based
Homo sapiens [10] = organism: Homo sapiens; experiment: Cytotoxicity against human GSC12 cells assessed as cell growth inhibition at 25 uM by phenotypic screening-based assay; format: functional
Homo sapiens [11] = experiment: Antiproliferative activity against human GSC18 cells assessed as damage to clonal spheres morphology at 25 uM administered 2 weeks post clonal sphere formation measured after 10 days by crystal violet-staining based assay; format: functional, cell-based
HEK-293T [12] = experiment: Cytotoxicity against human 293T cells assessed as cell growth inhibition at 25 uM by phenotypic screening-based assay
Homo sapiens [13] = organism: Homo sapiens; experiment: Induction of apoptosis in human GSC18 cells assessed as increase in calpain1 mRNA levels at 25 uM after 10 days by RT-PCR analysis relative to DMSO; format: functional, cell-based
Homo sapiens [14] = organism: Homo sapiens; experiment: Induction of intrinsic apoptosis in human GSC18 cells assessed as increase in bax mRNA levels at 25 uM after 10 days by RT-PCR analysis relative to DMSO; format: functional, cell-based
Homo sapiens [15] = organism: Homo sapiens; experiment: Induction of apoptosis in human GSC18 cells assessed as increase in caspase-3 positive apoptotic cells at 25 uM by immunofluorescence-staining based microscopic analysis; format: functional, cell-based
Homo sapiens [16] = organism: Homo sapiens; experiment: Induction of intrinsic apoptosis in human GSC18 cells assessed as increase in bid mRNA levels at 25 uM after 10 days by RT-PCR analysis relative to DMSO; format: functional, cell-based
Homo sapiens [17] = experiment: Antiproliferative activity against human GSC18 cells assessed as decrease in number of clonal spheres at 25 uM administered 2 weeks post clonal sphere formation measured after 10 days by crystal violet-staining based assay; format: functional, cell-based
[18] = Cytotoxicity against human HAC cells assessed as cell growth inhibition at 25 uM by phenotypic screening-based assay
Homo sapiens [19] = organism: Homo sapiens; experiment: Antiproliferative activity against human GSC18 cells assessed as reduction in BrdU-positive proliferating cells at 25 uM after 72 hrs by BrdU incorporation assay relative to DMSO; format: functional, cell-based
Homo sapiens [20] = organism: Homo sapiens; experiment: Induction of extrinsic apoptosis in human GSC18 cells assessed as increase in TNFalpha mRNA levels at 25 uM after 10 days by RT-PCR analysis relative to DMSO; format: functional, cell-based

CC(=O)O[C@H]1C(=O)[C@@]2(C)[C@H]([C@H](OC(=O)c3ccccc3)[C@]3(O)C[C@H](OC(=O)[C@H](O)[C@@H](NC(=O)c4ccccc4)c4ccccc4)C(C)=C1C3(C)C)[C@]1(OC(C)=O)CO[C@@H]1C[C@@H]2O [PACLITAXEL]
IC50 [1]: 0.0121 µM | IC50 [2]: 12.5 µM | IC50 [3]: 10.4 µM | IC50 (HEK-293T [4]): 0.0023 µM

C=C[C@H]1[C@H](O[C@@H]2O[C@H](CO[C@H]3C[C@@]45c6ccccc6N[C@]4(O3)[C@@H]3C[C@@H](/C(=C\C)C=[N+]3[O-])[C@H]5CC(=O)OC)[C@@H](O)[C@H](O)[C@H]2O)OC=C2C(=O)N3CCc4c([nH]c5ccccc45)[C@@H]3C[C@H]21
growth inhibition (GI) (Homo sapiens [5]): Active | Activity (Homo sapiens [6]): inactive | Activity (Homo sapiens [7]): Active | Activity (Homo sapiens [8]): inactive | Activity (Homo sapiens [9]): inactive | IC50 [1]: > 90 µM | growth inhibition (GI) (Homo sapiens [10]): Active | Activity (Homo sapiens [11]): Active | IC50 [2]: 30.9 µM | Activity (HEK-293T [12]): Non-Toxic | Activity (Homo sapiens [13]): inactive | IC50 [3]: 19.2 µM | Activity (Homo sapiens [14]): inactive | Activity (Homo sapiens [15]): Active | Activity (Homo sapiens [16]): inactive | Activity (Homo sapiens [17]): Active | Activity [18]: Non-Toxic | IC50 (HEK-293T [4]): > 90 µM | Activity (Homo sapiens [19]): Active | Activity (Homo sapiens [20]): Active

C=C[C@H]1[C@H](O[C@@H]2O[C@H](CO[C@H]3C[C@@]45c6ccccc6N[C@]4(O3)[C@@H]3C[C@@H](/C(=C/C)C=[N+]3[O-])[C@H]5CC(=O)OC)[C@@H](O)[C@H](O)[C@H]2O)OC=C2C(=O)N3CCc4c([nH]c5ccccc45)[C@@H]3C[C@H]21
growth inhibition (GI) (Homo sapiens [5]): Active | Activity (Homo sapiens [6]): inactive | Activity (Homo sapiens [7]): Active | Activity (Homo sapiens [8]): inactive | Activity (Homo sapiens [9]): inactive | IC50 [1]: > 90 µM | growth inhibition (GI) (Homo sapiens [10]): Active | Activity (Homo sapiens [11]): Active | IC50 [2]: 20.7 µM | Activity (HEK-293T [12]): Non-Toxic | Activity (Homo sapiens [13]): inactive | IC50 [3]: 16.1 µM | Activity (Homo sapiens [14]): inactive | Activity (Homo sapiens [15]): Active | Activity (Homo sapiens [16]): inactive | Activity (Homo sapiens [17]): Active | Activity [18]: Non-Toxic | IC50 (HEK-293T [4]): > 90 µM | Activity (Homo sapiens [19]): Active | Activity (Homo sapiens [20]): Active

— ChEMBL document CHEMBL4219098, “Unprecedented sugar bridged bisindoles selective inhibiting glioma stem cells” (Bioorg Med Chem, 2018)
